# Test results: ChEMBL document CHEMBL1201862, “PubChem BioAssay data set” (2004)
#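 48-hour exposure; five concentrations; linearly interpolated endpoints. Abbreviation: GI50, concentration required for 50% inhibition of growth.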 Active and inactive are the calls of the source. Rule as the data show it: active = GI50 up to about 1.1 µM and inactive = higher.
# Tests used:
# Test in all cases: inhibition of tumour cell growth, NCI panel, 48 h
# [1] = system: 786-0
# [2] = system: A549
# [3] = system: BT-549
# [4] = system: CAKI-1
# [5] = system: CCRF-CEM
# [6] = system: COLO 205
# [7] = system: EKVX
# [8] = system: HCC 2998
# [9] = system: HOP-62
# [10] = system: IGROV-1
# [11] = system: M14
# [12] = system: MCF7
# [13] = system: MDA-MB-435
# [14] = system: Malme-3M
# [15] = system: NCI-H23
# [16] = system: NCI-H522
# [17] = system: OVCAR-5
# [18] = system: SF-295
# [19] = system: SK-MEL-5
# [20] = system: UO-31
Structure (SMILES),GI50 [1],GI50 [2],GI50 [3],GI50 [4],GI50 [5],GI50 [6],GI50 [7],GI50 [8],GI50 [9],GI50 [10],GI50 [11],GI50 [12],GI50 [13],GI50 [14],GI50 [15],GI50 [16],GI50 [17],GI50 [18],GI50 [19],GI50 [20]
CC(=O)Nc1nc(NC(C)=O)c2nc(CO)[nH]c2n1,> 100 µM (inactive),> 100 µM (inactive),> 100 µM (inactive),> 100 µM (inactive),> 100 µM (inactive),> 100 µM (inactive),> 100 µM (inactive),> 100 µM (inactive),> 100 µM (inactive),> 100 µM (inactive),> 100 µM (inactive),> 100 µM (inactive),> 100 µM (inactive),> 100 µM (inactive),> 100 µM (inactive),> 100 µM (inactive),> 100 µM (inactive),> 100 µM (inactive),> 100 µM (inactive),> 100 µM (inactive)
CC1(C)C[C@H]2[C@H](O)C(CO)=C3C(=O)[C@@H](O)[C@]3(C)[C@H]2C1,> 100 µM (inactive),> 100 µM (inactive),45.7 µM (inactive),> 100 µM (inactive),24.5 µM (inactive),> 100 µM (inactive),> 100 µM (inactive),> 100 µM (inactive),> 100 µM (inactive),> 100 µM (inactive),> 100 µM (inactive),44.8 µM (inactive),50.5 µM (inactive),> 100 µM (inactive),63.7 µM (inactive),64.6 µM (inactive),> 100 µM (inactive),> 100 µM (inactive),> 100 µM (inactive),89.5 µM (inactive)
COc1cc(O)cc(O)c1C(=O)CC(Cl)(Cl)Cl,> 100 µM (inactive),> 100 µM (inactive),> 100 µM (inactive),> 100 µM (inactive),> 100 µM (inactive),> 100 µM (inactive),> 100 µM (inactive),> 100 µM (inactive),> 100 µM (inactive),> 100 µM (inactive),> 100 µM (inactive),> 100 µM (inactive),> 100 µM (inactive),> 100 µM (inactive),> 100 µM (inactive),> 100 µM (inactive),> 100 µM (inactive),> 100 µM (inactive),> 100 µM (inactive),> 100 µM (inactive)
CO/N=[N+](\[O-])NC(C)C,> 100 µM (inactive),> 100 µM (inactive),> 100 µM (inactive),> 100 µM (inactive),> 100 µM (inactive),> 100 µM (inactive),> 100 µM (inactive),> 100 µM (inactive),> 100 µM (inactive),> 100 µM (inactive),> 100 µM (inactive),> 100 µM (inactive),> 100 µM (inactive),> 100 µM (inactive),> 100 µM (inactive),> 100 µM (inactive),> 100 µM (inactive),> 100 µM (inactive),> 100 µM (inactive),5.42 µM (inactive)
COc1c(C)c(OC)c2c(c1O)[C@@H]1[C@@H]3Cc4c(OC)c(C)c(OC)c(O)c4[C@H](CNC(=O)c4cnc5ccccc5n4)N3[C@@H](C#N)[C@H](C2)N1C,0.00412 µM (active),0.0292 µM (active),0.00132 µM (active),0.00536 µM (active),0.000798 µM (active),0.00119 µM (active),0.00149 µM (active),0.00327 µM (active),0.00429 µM (active),0.0014 µM (active),0.00221 µM (active),0.00135 µM (active),0.00255 µM (active),0.0013 µM (active),0.00277 µM (active),0.000399 µM (active),0.00337 µM (active),0.00296 µM (active),0.00254 µM (active),0.0064 µM (active)
Cc1c2c(Cl)c3c(c(Cl)c2c(C)c2c(Cl)c4c(c(Cl)c12)C(c1ccccc1)(c1ccccc1)C4(c1ccccc1)c1ccccc1)C(c1ccccc1)(c1ccccc1)C3(c1ccccc1)c1ccccc1,> 100 µM (inactive),> 100 µM (inactive),> 100 µM (inactive),> 100 µM (inactive),> 100 µM (inactive),> 100 µM (inactive),> 100 µM (inactive),> 100 µM (inactive),> 100 µM (inactive),> 100 µM (inactive),> 100 µM (inactive),> 100 µM (inactive),> 100 µM (inactive),> 100 µM (inactive),> 100 µM (inactive),> 100 µM (inactive),> 100 µM (inactive),> 100 µM (inactive),> 100 µM (inactive),> 100 µM (inactive)
CCOc1ccc(/N=N/C2C(=O)N(C(=O)CC(=O)Nc3ccccc3)N=C2C)cc1 (stereo not given),> 100 µM (inactive),34.5 µM (inactive),33.6 µM (inactive),55.3 µM (inactive),> 100 µM (inactive),> 100 µM (inactive),17.4 µM (inactive),40.9 µM (inactive),59.3 µM (inactive),37.3 µM (inactive),58.1 µM (inactive),54.8 µM (inactive),5.07 µM (inactive),> 100 µM (inactive),78.3 µM (inactive),83.9 µM (inactive),> 100 µM (inactive),> 100 µM (inactive),42.8 µM (inactive),> 100 µM (inactive)
CCNCCNc1c2ccccc2nc2ccccc12,0.791 µM (active),1.56 µM (inactive),2.84 µM (inactive),0.698 µM (active),1.29 µM (inactive),0.822 µM (active),2.44 µM (inactive),0.127 µM (active),0.461 µM (active),1.88 µM (inactive),1.39 µM (inactive),0.565 µM (active),1.21 µM (inactive),1.7 µM (inactive),1.26 µM (inactive),1.04 µM (active),1.13 µM (inactive),1.21 µM (inactive),1.66 µM (inactive),1.49 µM (inactive)
O=C(O)c1cc(=O)c2c(OCC(O)COc3cccc4oc(C(=O)O)cc(=O)c34)cccc2o1,> 100 µM (inactive),> 84.3 µM (inactive),> 100 µM (inactive),> 100 µM (inactive),> 71 µM (inactive),> 68.4 µM (inactive),> 96.6 µM (inactive),> 100 µM (inactive),> 91.2 µM (inactive),> 60.5 µM (inactive),> 88.1 µM (inactive),> 85.1 µM (inactive),> 67.5 µM (inactive),> 75.3 µM (inactive),> 84.3 µM (inactive),> 56.8 µM (inactive),> 84.3 µM (inactive),> 95.5 µM (inactive),> 65.9 µM (inactive),> 100 µM (inactive)
CN(C)CCn1c(=O)c2ccc(NCCN3CCNCC3)c3c(=O)c4ccccc4n(c1=O)c23,0.358 µM (active),0.962 µM (active),7.33 µM (inactive),2.04 µM (inactive),0.207 µM (active),1.35 µM (inactive),1.87 µM (inactive),1.97 µM (inactive),4.06 µM (inactive),0.345 µM (active),4.84 µM (inactive),0.743 µM (active),2.86 µM (inactive),4.12 µM (inactive),2.3 µM (inactive),1.07 µM (active),8.47 µM (inactive),1.02 µM (active),3.47 µM (inactive),4.94 µM (inactive)
